Measured values reported in patent publication US12077503B2, “Substituted cyclic amides and their use as herbicides” (FMC CORPORATION, priority 2015, dated 2024).

What was measured:
Assay type in all cases: in vivo
[1] = test system: barnyardgrass (Echinochloa crus-galli); assay: Test G Pre-Emergence Protocol; conditions: Echinochloa crus-galli, pre-emergence, 312 h, evaluated after 13 days; for pest or weed control at 15.625 g/ha: 15.625 g ai/ha, read-out: Barnyard grass damage rating (100=total damage to plant; 0=no damage to plant); for pest or weed control at 62.5 g/ha: 62.5 g ai/ha, 100=total damage to plant, 0=no damage to plant, read-out: plant damage rating, Barnyardgrass; for pest or weed control at 250 g/ha: 250 g ai/ha, read-out: Barnyardgrass damage rating (100=total damage to plant; 0=no damage to plant)
Method in brief: (§1)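 Herbicidal effect was rated 13 days post-application on a scale where 100 equals total damage. Spraying took place the day after sowing, using 15.625, 62.5 or 250 g/ha of compound in a 50:50 acetone/water solution with 0.5% Tween 20.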

corn (Zea mays) [2] = assay: Test G Pre-Emergence Protocol; conditions: Zea mays, pre-emergence, 312 h, evaluated after 13 days; for plant injury at 15.625 g/ha: 15.625 g ai/ha; for plant injury at 15.625 g/ha / plant injury at 250 g/ha: read-out: Corn damage rating (100=total damage to plant; 0=no damage to plant); for plant injury at 62.5 g/ha: 62.5 g ai/ha, 100=total damage to plant, 0=no damage to plant, read-out: plant damage rating, Corn; for plant injury at 250 g/ha: 250 g ai/ha
Method in brief: as §1

[3] = test system: giant foxtail (Setaria faberi); assay: Test G Pre-Emergence Protocol; conditions: Setaria faberi, pre-emergence, 312 h, evaluated after 13 days; for pest or weed control at 15.625 g/ha: 15.625 g ai/ha; for pest or weed control at 15.625 g/ha / pest or weed control at 250 g/ha: read-out: Foxtail, Giant damage rating (100=total damage to plant; 0=no damage to plant); for pest or weed control at 62.5 g/ha: 62.5 g ai/ha, 100=total damage to plant, 0=no damage to plant, read-out: plant damage rating, Foxtail, Giant; for pest or weed control at 250 g/ha: 250 g ai/ha
Method in brief: as §1

[4] = test system: ivy-leaved morning glory (Ipomoea hederacea); assay: Test G Pre-Emergence Protocol; conditions: Ipomoea, pre-emergence, 312 h, evaluated after 13 days; for pest or weed control at 15.625 g/ha: 15.625 g ai/ha, read-out: Morning-glory, Ivy-leaved damage rating (100=total damage to plant; 0=no damage to plant); for pest or weed control at 62.5 g/ha: 62.5 g ai/ha, 100=total damage to plant, 0=no damage to plant, read-out: plant damage rating, Morningglory, Ivy-leaved; for pest or weed control at 250 g/ha: 250 g ai/ha, read-out: Morningglory, Ivy-leaved damage rating (100=total damage to plant; 0=no damage to plant)
Method in brief: as §1

[5] = test system: redroot pigweed (Amaranthus retroflexus); assay: Test G Pre-Emergence Protocol; conditions: Amaranthus retroflexus, pre-emergence, 312 h, evaluated after 13 days; for pest or weed control at 15.625 g/ha: 15.625 g ai/ha; for pest or weed control at 15.625 g/ha / pest or weed control at 250 g/ha: read-out: Pigweed, Redroot damage rating (100=total damage to plant; 0=no damage to plant); for pest or weed control at 62.5 g/ha: 62.5 g ai/ha, 100=total damage to plant, 0=no damage to plant, read-out: plant damage rating, Pigweed, Redroot; for pest or weed control at 250 g/ha: 250 g ai/ha
Method in brief: as §1

[6] = test system: velvetleaf (Abutilon theophrasti); assay: Test G Pre-Emergence Protocol; conditions: Abutilon theophrasti, pre-emergence, 312 h, evaluated after 13 days; for pest or weed control at 15.625 g/ha: 15.625 g ai/ha; for pest or weed control at 15.625 g/ha / pest or weed control at 250 g/ha: read-out: Velvetleaf damage rating (100=total damage to plant; 0=no damage to plant); for pest or weed control at 62.5 g/ha: 62.5 g ai/ha, 100=total damage to plant, 0=no damage to plant, read-out: plant damage rating, Velvetleaf; for pest or weed control at 250 g/ha: 250 g ai/ha
Method in brief: as §1

[7] = test system: barnyardgrass (Echinochloa crus-galli); assay: Test G Post-Emergence Protocol; conditions: Echinochloa crus-galli, post-emergence, 312 h; for pest or weed control at 15.625 g/ha: 15.625 g ai/ha, evaluated after 13 days (100=total damage to plant; 0=no damage to plant), read-out: Barnyardgrass damage rating; for pest or weed control at 62.5 g/ha: 62.5 g ai/ha, read-out: Barnyardgrass damage rating (100=total damage to plant; 0=no damage to plant); for pest or weed control at 62.5 g/ha / pest or weed control at 250 g/ha: evaluated after 13 days; for pest or weed control at 250 g/ha: 250 g ai/ha, read-out: damage to plant, Barnyardgrass (100=total damage to plant; 0=no damage to plant)
Method in brief: (§2)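 A glasshouse post-emergence test: 8-day-old plants sprayed at 15.625, 62.5 or 250 g/ha, then grown at 24/16 °C day/night with 14 h light and 65% humidity. Damage rated 13 days later, 0–100.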

corn (Zea mays) [8] = assay: Test G Post-Emergence Protocol; conditions: Zea mays, post-emergence, 312 h; for plant injury at 15.625 g/ha: 15.625 g ai/ha, evaluated after 13 days (100=total damage to plant; 0=no damage to plant), read-out: Corn damage rating; for plant injury at 62.5 g/ha: 62.5 g ai/ha, read-out: Corn damage rating (100=total damage to plant; 0=no damage to plant); for plant injury at 62.5 g/ha / plant injury at 250 g/ha: evaluated after 13 days; for plant injury at 250 g/ha: 250 g ai/ha, read-out: damage to plant, Corn (100=total damage to plant; 0=no damage to plant)
Method in brief: as §2

[9] = test system: giant foxtail (Setaria faberi); assay: Test G Post-Emergence Protocol; conditions: Setaria faberi, post-emergence, 312 h; for pest or weed control at 15.625 g/ha: 15.625 g ai/ha, evaluated after 13 days (100=total damage to plant; 0=no damage to plant), read-out: Foxtail, Giant damage rating; for pest or weed control at 62.5 g/ha: 62.5 g ai/ha, read-out: Foxtail, Giant damage rating (100=total damage to plant; 0=no damage to plant); for pest or weed control at 62.5 g/ha / pest or weed control at 250 g/ha: evaluated after 13 days; for pest or weed control at 250 g/ha: 250 g ai/ha, read-out: damage to plant, Foxtail, Giant (100=total damage to plant; 0=no damage to plant)
Method in brief: as §2

[10] = test system: ivy-leaved morning glory (Ipomoea hederacea); assay: Test G Post-Emergence Protocol; conditions: Ipomoea, post-emergence, 312 h; for pest or weed control at 15.625 g/ha: 15.625 g ai/ha, evaluated after 13 days (100=total damage to plant; 0=no damage to plant), read-out: Morningglory, Ivy-leaved damage rating; for pest or weed control at 62.5 g/ha: 62.5 g ai/ha, read-out: Morningglory, Ivy-leaved damage rating (100=total damage to plant; 0=no damage to plant); for pest or weed control at 62.5 g/ha / pest or weed control at 250 g/ha: evaluated after 13 days; for pest or weed control at 250 g/ha: 250 g ai/ha, read-out: damage to plant, Morningglory, Ivy-leaved (100=total damage to plant; 0=no damage to plant)
Method in brief: as §2

[11] = test system: redroot pigweed (Amaranthus retroflexus); assay: Test G Post-Emergence Protocol; conditions: Amaranthus retroflexus, post-emergence, 312 h; for pest or weed control at 15.625 g/ha: 15.625 g ai/ha, evaluated after 13 days (100=total damage to plant; 0=no damage to plant), read-out: Pigweed, Redroot damage rating; for pest or weed control at 62.5 g/ha: 62.5 g ai/ha, read-out: Pigweed, Redroot damage rating (100=total damage to plant; 0=no damage to plant); for pest or weed control at 62.5 g/ha / pest or weed control at 250 g/ha: evaluated after 13 days; for pest or weed control at 250 g/ha: 250 g ai/ha, read-out: damage to plant, Pigweed, Redroot (100=total damage to plant; 0=no damage to plant)
Method in brief: as §2

[12] = test system: velvetleaf (Abutilon theophrasti); assay: Test G Post-Emergence Protocol; conditions: Abutilon theophrasti, post-emergence, 312 h; for pest or weed control at 15.625 g/ha: 15.625 g ai/ha, evaluated after 13 days (100=total damage to plant; 0=no damage to plant), read-out: Velvetleaf damage rating; for pest or weed control at 62.5 g/ha: 62.5 g ai/ha, read-out: Velvetleaf damage rating (100=total damage to plant; 0=no damage to plant); for pest or weed control at 62.5 g/ha / pest or weed control at 250 g/ha: evaluated after 13 days; for pest or weed control at 250 g/ha: 250 g ai/ha, read-out: damage to plant, Velvetleaf (100=total damage to plant; 0=no damage to plant)
Method in brief: as §2

Structure (SMILES) | pest or weed control at 15.625 g/ha [1] [%] | pest or weed control at 62.5 g/ha [1] [%] | pest or weed control at 250 g/ha [1] [%] | plant injury at 15.625 g/ha (corn (Zea mays) [2]) [%] | plant injury at 62.5 g/ha (corn (Zea mays) [2]) [%] | plant injury at 250 g/ha (corn (Zea mays) [2]) [%] | pest or weed control at 15.625 g/ha [3] [%] | pest or weed control at 62.5 g/ha [3] [%] | pest or weed control at 250 g/ha [3] [%] | pest or weed control at 15.625 g/ha [4] [%] | pest or weed control at 62.5 g/ha [4] [%] | pest or weed control at 250 g/ha [4] [%] | pest or weed control at 15.625 g/ha [5] [%] | pest or weed control at 62.5 g/ha [5] [%] | pest or weed control at 250 g/ha [5] [%] | pest or weed control at 15.625 g/ha [6] [%] | pest or weed control at 62.5 g/ha [6] [%] | pest or weed control at 250 g/ha [6] [%] | pest or weed control at 15.625 g/ha [7] [%] | pest or weed control at 62.5 g/ha [7] [%] | further results
CN1C[C@@H](c2ccc(C(F)(F)F)cc2)[C@H](C(=O)Nc2nnnn2C)C1=O (racemic) [Compound 1618] | 0 | 0 | 10 | 0 | 0 | 20 | 0 | 0 | 20 | 0 | 0 | 20 | 0 | 0 | 20 | 0 | 0 | 10 | 0 | 0 | pest or weed control at 250 g/ha [7]: 0%; plant injury at 15.625 g/ha (corn (Zea mays) [8]): 0%; plant injury at 62.5 g/ha (corn (Zea mays) [8]): 0%; plant injury at 250 g/ha (corn (Zea mays) [8]): 0%; pest or weed control at 15.625 g/ha [9]: 0%; pest or weed control at 62.5 g/ha [9]: 0%; pest or weed control at 250 g/ha [9]: 0%; pest or weed control at 15.625 g/ha [10]: 0%; pest or weed control at 62.5 g/ha [10]: 0%; pest or weed control at 250 g/ha [10]: 0%; pest or weed control at 15.625 g/ha [11]: 0%; pest or weed control at 62.5 g/ha [11]: 0%; pest or weed control at 250 g/ha [11]: 0%; pest or weed control at 15.625 g/ha [12]: 0%; pest or weed control at 62.5 g/ha [12]: 0%; pest or weed control at 250 g/ha [12]: 0%
COC(=O)c1sccc1NC(=O)[C@@H]1C(=O)N(C)C[C@H]1c1ccc(C(F)(F)F)cc1 (racemic) [Compound 1621] | 0 | 0 | 0 | 0 | 0 | 0 | 0 | 0 | 0 | 0 | 0 | 0 | 0 | 0 | 0 | 0 | 0 | 0 | 10 | 30 | pest or weed control at 250 g/ha [7]: 30%; plant injury at 15.625 g/ha (corn (Zea mays) [8]): 0%; plant injury at 62.5 g/ha (corn (Zea mays) [8]): 0%; plant injury at 250 g/ha (corn (Zea mays) [8]): 0%; pest or weed control at 15.625 g/ha [9]: 10%; pest or weed control at 62.5 g/ha [9]: 40%; pest or weed control at 250 g/ha [9]: 40%; pest or weed control at 15.625 g/ha [10]: 0%; pest or weed control at 62.5 g/ha [10]: 0%; pest or weed control at 250 g/ha [10]: 0%; pest or weed control at 15.625 g/ha [11]: 0%; pest or weed control at 62.5 g/ha [11]: 20%; pest or weed control at 250 g/ha [11]: 10%; pest or weed control at 15.625 g/ha [12]: 0%; pest or weed control at 62.5 g/ha [12]: 0%; pest or weed control at 250 g/ha [12]: 0%
CN1C[C@@H](c2ccc(C(F)(F)F)cc2)[C@H](C(=O)Nc2ccc(F)c(Cl)c2F)C1=O (racemic) [Compound 1628] | 10 | 0 | 70 | 0 | 0 | 0 | 50 | 50 | 80 | 20 | 0 | 20 | 0 | 30 | 50 | 0 | 0 | 0 | 30 | 70 | pest or weed control at 250 g/ha [7]: 70%; plant injury at 15.625 g/ha (corn (Zea mays) [8]): 0%; plant injury at 62.5 g/ha (corn (Zea mays) [8]): 0%; plant injury at 250 g/ha (corn (Zea mays) [8]): 50%; pest or weed control at 15.625 g/ha [9]: 70%; pest or weed control at 62.5 g/ha [9]: 80%; pest or weed control at 250 g/ha [9]: 80%; pest or weed control at 15.625 g/ha [10]: 20%; pest or weed control at 62.5 g/ha [10]: 20%; pest or weed control at 250 g/ha [10]: 50%; pest or weed control at 15.625 g/ha [11]: 10%; pest or weed control at 62.5 g/ha [11]: 50%; pest or weed control at 250 g/ha [11]: 60%; pest or weed control at 15.625 g/ha [12]: 30%; pest or weed control at 62.5 g/ha [12]: 20%; pest or weed control at 250 g/ha [12]: 20%
